Laboratory results: patent publication US20040096855A1, “Genes” (priority 2001, published 2004)

Columns and labels:
[1] = test system: ERK (WM-266-4/WM-115 cells); conditions: WM-266-4/WM-115, melanoma; Ras b; B-Raf V599D
ERK (A2058 cells) = conditions: A2058, melanoma; B-Raf V599E
[2] = test system: ERK activity in WM266.4 cells; assay: Active ERK levels by Western blot with ppERK antibody; assay type: cell-based, human; conditions: 10 μM compound
Procedure: WM266.4 or A375P cells were treated with 10 μM U0126, 10 μM BAY 43-9006 or DMSO as a control. Equivalent amounts of cellular proteins were resolved on SDS-gels and the levels of active ERK were determined using the ppERK antibody.
FIG. 6. Ablation of BRAF, but not CRAF blocks ERK activity in melanoma cells. WM-266.4 or Colo 829 cells were treated with a BRAF specific siRNA probe (BRAF), or the scrambled control (sBRAF), or a CRAF specific probe (CRAF), or its scrambled control (sCRAF), or oligofectamine (oligo) or left untreated (control) as indicated. The cells were incubated for the times indicated, and the Colo 829 cells were treated for 24hours. The levels of ERK activity in equivalent amounts of cell extract was determined by Western blotting with the ppERK antibody.
In order to validate BRAF as a target in cancer, it is first tested whether the growth of cells that express activated, mutant forms of BRAF required the RAF-MEK-ERK signaling pathway for growth. To this end, melanoma and colorectal cell lines that harbour mutations in the BRAF gene are treated with pharmacological agents that block signaling through this pathway. Two compounds are tested. One is the compound U0126, which is a MEK inhibitor and which therefore uncouples RAF-ERK signaling in cells (Sebolt-Leopold et al., 1999). BAY 43-9006 os also tested. This is an inhibitor of RAF proteins (Lyons et al., 2001). […]

ERK (colo741 cells) = conditions: colo741, colorectal; B-Raf V599E
WM-266.4 cells [3] = assay: Cell cycle analysis by FACS (propridium iodide); assay type: cell-based, human; conditions: 96 hours
Procedure: FIG. 7. Ablation of BRAF, but not CRAF induces apoptosis in melanoma cells. WM-266.4 cells were treated with a BRAF specific siRNA probe (BRAF), or the scrambled control (sBRAF), or a CRAF specific siRNA probe (CRAF), or U0126, or […] (oligo) or left untreated (control) as indicated. The cells were incubated for 96 hours and the cell cycle profile was analysed by FACS, or PARP expression was examined by Western blotting.
Finally, we examined how BRAF ablation affected cell growth, examining the effects on apoptosis in WM-266.4 cells. For these studies, the cells were fixed in 70% ethanol, stained with propridium iodide and their cell cycle profiles were examined by fluorescent activated cell sorting (FACS). Using this analysis, the apoptotic cells appear in the sub-G1 peak. In these cells, spontaneous apoptosis is very low, with less than 1% of the cell appearing in the sub-G1 peak (FIG. 7, table 5). […] We also examined PARP cleavage, a marker of the induction of apoptosis.
WM-266.4 cells were treated with U0126, DMSO, siRNA to BRAF, siRNA to CRAF or the scrambled siRNA control. The cells were incubated for 96 hours and the cells were fixed and stained with propridium iodide for cell cycle analysis by FACS. The proportion of cells in each phase of the cell cycle is shown.

ERK (SK-MEL-28 cells) = conditions: SK-MEL-28, melanoma; Ras b; B-Raf V599E
ERK (Mawi cells) = conditions: colorectal, Ras wt, B-Raf V599E
ERK (NCI-H2087 cells) = conditions: NCI-H2087, NSCLC cell line pair; Ras onc; B-Raf L596V
WM-266.4 cells [4] = assay: DNA synthesis, [3H]-thymidine incorporation; assay type: cell-based, human; conditions: 10 μM, 48 hours
Procedure: FIG. 4. Inhibition of cell growth by pharmacological agents. WM-266.4 cells were incubated in the presence of U0126 (10 μM) or BAY 43-9006 (10 μM) or the vehicle control (DMSO). After 48 hours, DNA synthesis was determined by incubating the cells with [^3H]-thymidine and the levels of thymidine incorporated into the cellular DNA was determined.
(§1) Colo 829 cells are a melanoma cell line that harbours a V599E mutation in the BRAF gene and BE cells are a colorectal line that harbour a G463 mutation in the BRAF gene (Davies et al., 2002). As we have shown, both of these mutations are activating (Davies et al., 2002). Finally, we tested the effects of these inhibitors on DNA synthesis.

colo741 = conditions: colo741, colorectal; B-Raf V599E
Source text: (§2) The second approach is to examine the effects of the compound U0126, an inhibitor of MEK1/2, the only known substrates for B-Raf.

A2058 = conditions: A2058, melanoma; B-Raf V599E
Source text: as §2

CHL = conditions: melanoma, B-Raf wt
Source text: as §2

SK-MEL-28 = conditions: SK-MEL-28, melanoma; Ras b; B-Raf V599E
Source text: as §2

WM-266-4/WM-115 = conditions: WM-266-4/WM-115, melanoma; Ras b; B-Raf V599D
Source text: as §2

SW620 = conditions: SW620, colorectal; Ras onc; B-Raf wt
Source text: as §2

NCI-H2087 = conditions: NCI-H2087, NSCLC cell line pair; Ras onc; B-Raf L596V
Source text: as §2

Mawi = conditions: colorectal, Ras wt, B-Raf V599E
Source text: as §2

ERK (CHL cells) = conditions: melanoma, B-Raf wt
cellular Ras = assay: cell-based or functional assay
WM266.4 = assay: Inhibition of cell growth, sulphorhodamine B staining; assay type: cell-based, human; conditions: WM266.4 melanoma cells (BRAF V599D)
BE = assay: as above; assay type: cell-based, human; conditions: BE colorectal cells (BRAF G463 mutation)
Procedure: as §1
(§3) Cell lines were incubated in the presence of increasing levels of BAY 43-9006 and the levels of cell growth were determined by sulphorhodamine B staining. The IC50 values were determined by non-linear regression analysis and are indicated.

Colo 829 = assay: as above; assay type: cell-based, human; conditions: Colo 829 melanoma cells (BRAF V599E)
Procedure: as §1, §3

N#CC(=C(/N)Sc1ccccc1N)/C(C#N)=C(\N)Sc1ccccc1N [U0126]
UO/ERK-inhib [1]: >90% | UO/ERK-inhib (ERK (A2058 cells)): 80% | ERK activity (ppERK Western blot) [2]: strongly suppressed | UO/ERK-inhib (ERK (colo741 cells)): 90% | Proportion of events, G1 (WM-266.4 cells [3]): 87.5% | Proportion of events, G2/M (WM-266.4 cells [3]): 7.8% | Proportion of events, S (WM-266.4 cells [3]): 1.3% | Proportion of events, Sub-G1 (WM-266.4 cells [3]; sub-G1 = apoptotic cells): ~3.5% | UO/ERK-inhib (ERK (SK-MEL-28 cells)): >90% | UO/ERK-inhib (ERK (Mawi cells)): >90% | UO/ERK-inhib (ERK (NCI-H2087 cells)): >90% | DNA synthesis ([3H]-thymidine incorporation) (WM-266.4 cells [4]): strongly suppressed | U0 inhibit S (colo741): 76% | U0 inhibit S (A2058): 68% | U0 inhibit S (CHL): 51% | U0 inhibit S (SK-MEL-28): 98% | U0 inhibit S (WM-266-4/WM-115): >99% | U0 inhibit S (SW620): 92% | U0 inhibit S (NCI-H2087): 56% | U0 inhibit S (Mawi): 80% | UO/ERK-inhib (ERK (CHL cells)): >90%

monoclonal antibody Y13-259
inhibition of growth (percentage of cells that do not incorporate BrdU) after micro-injection of Y13-259; A2058, melanoma, Ras not given, B-Raf V599E (cellular Ras): 0% | inhibition of growth (percentage of cells that do not incorporate BrdU) after micro-injection of Y13-259; CaCO2, colorectal, Ras wt, B-Raf wt (cellular Ras): 60% | inhibition of growth (percentage of cells that do not incorporate BrdU) after micro-injection of Y13-259; DLD1, colorectal, Ras K13Asp/wt, B-Raf wt (cellular Ras): 40% | inhibition of growth (percentage of cells that do not incorporate BrdU) after micro-injection of Y13-259; HCT-116, colorectal, Ras K13 Asp, B-Raf wt (cellular Ras): 95% | inhibition of growth (percentage of cells that do not incorporate BrdU) after micro-injection of Y13-259; HMV11-Riken, melanoma, Ras not given, B-Raf wt (cellular Ras): 100% | inhibition of growth (percentage of cells that do not incorporate BrdU) after micro-injection of Y13-259; HT29, colorectal, Ras wt, B-Raf V599E (cellular Ras): 15% | inhibition of growth (percentage of cells that do not incorporate BrdU) after micro-injection of Y13-259; JW2, colorectal, Ras K12, B-Raf wt (cellular Ras): 79% | inhibition of growth (percentage of cells that do not incorporate BrdU) after micro-injection of Y13-259; LS174T, colorectal, Ras K12Asp/wt, B-Raf wt (cellular Ras): 84% | inhibition of growth (percentage of cells that do not incorporate BrdU) after micro-injection of Y13-259; LS411N, colorectal, Ras not given, B-Raf V599E (first value) (cellular Ras): 0% | inhibition of growth (percentage of cells that do not incorporate BrdU) after micro-injection of Y13-259; LS411N, colorectal, Ras not given, B-Raf V599E (second value) (cellular Ras): 0% | inhibition of growth (percentage of cells that do not incorporate BrdU) after micro-injection of Y13-259; Malme, melanoma, Ras not given, B-Raf V599E (cellular Ras): 0% | inhibition of growth (percentage of cells that do not incorporate BrdU) after micro-injection of Y13-259; Mawi, colorectal, Ras wt, B-Raf V599E (cellular Ras): 5% | inhibition of growth (percentage of cells that do not incorporate BrdU) after micro-injection of Y13-259; NCI-H2087, NSCLC cell line pair, Ras onc, B-Raf L596V (cellular Ras): 77% | inhibition of growth (percentage of cells that do not incorporate BrdU) after micro-injection of Y13-259; SK-MEL-28, melanoma, Ras 'b', B-Raf V599E (cellular Ras): 4% | inhibition of growth (percentage of cells that do not incorporate BrdU) after micro-injection of Y13-259; SK-Mel2, melanoma, Ras not given, B-Raf wt (cellular Ras): 70% | inhibition of growth (percentage of cells that do not incorporate BrdU) after micro-injection of Y13-259; SW480, colorectal, Ras K12, B-Raf wt (cellular Ras): 57% | inhibition of growth (percentage of cells that do not incorporate BrdU) after micro-injection of Y13-259; SW620, colorectal, Ras onc, B-Raf wt (cellular Ras): 92% | inhibition of growth (percentage of cells that do not incorporate BrdU) after micro-injection of Y13-259; WM-266-4/WM-115, melanoma, Ras 'b', B-Raf V599D (cellular Ras): 10% | inhibition of growth (percentage of cells that do not incorporate BrdU) after micro-injection of Y13-259; colo205, colorectal, Ras wt, B-Raf V599E (cellular Ras): 3% | inhibition of growth (percentage of cells that do not incorporate BrdU) after micro-injection of Y13-259; colo741, colorectal, Ras not given, B-Raf V599E (cellular Ras): 0%

CNC(=O)c1cc(Oc2ccc(NC(=O)Nc3ccc(Cl)c(C(F)(F)F)c3)cc2)ccn1 [BAY 43-9006]
IC50 (WM266.4): 6.1 µM | IC50 (WM266.4; listed as BAY 43-9002): ~6.1 µM | ERK activity (ppERK Western blot) [2]: strongly suppressed | IC50 (BE): 5.4 µM | IC50, inhibition of cell growth (BE): low micro-molar range | IC50 (Colo 829): 5.1 µM | IC50, inhibition of cell growth (Colo 829): low micro-molar range | DNA synthesis ([3H]-thymidine incorporation) (WM-266.4 cells [4]): strongly suppressed
